The test system of series [1] is X. alfalfae. The series is described as follows: MIC by broth microdilution (CLSI) with resazurin. The series is classed as cell-based, Xanthomonas alfalfae subsp. citrumelonis. The procedure:
(§1) The antimicrobial efficacy of the ZnNP-Strep and controls were evaluated by the antimicrobial assay methods as previously described. Briefly, Microplate Alamar Blue Assay (MABA) was performed to initially screen the antimicrobial efficacy of the NPs. Then, the minimum inhibitory concentration (MIC) was determined by broth microdilution method in accordance with the guidelines of the Clinical and Laboratory Standards Institute (CLSI). As per the CLSI requirements, from a starter culture of 0.5 McFarland Standard, 5×10^5 CFU/well was added to all the wells. […] The accuracy of the MIC determination was improved by adding 10 μL of resazurin dye (0.0125%, w/v) per 100 μL well volume and observing color changes (from blue to pink for live organisms).

The test system of another series is P. syringae. The series can be described thus: MIC by broth microdilution (CLSI) with resazurin. The series is classed as cell-based, Pseudomonas syringae. The procedure:
as §1
A general note: In broth dilution the organism is exposed to a series of concentrations in liquid medium.

For a further series, the system named is E. coli. The series is described as follows: MIC by broth microdilution (CLSI) with resazurin. The series is classed as cell-based, Escherichia coli. The procedure: as §1
For series [2], the system named is X. alfalfae. The series can be described thus: MIC of ZnNP-Strep after dialysis (simulated rainfall). The series is classed as cell-based, Xanthomonas alfalfae subsp. citrumelonis. The conditions noted are these: Xanthomonas alfalfae; dialysis time N/A; relative to streptomycin concentration. The procedure: as §1
The antimicrobial efficacy of ZnNP-Strep was also studied after dialysis of the particles. […] The particles were dialyzed for 0, 1, 3, and 12 h and the remaining streptomycin loaded on the particles for each timepoint was quantified by LCMS by diluting the particles with 1% HCl and analyzing them with the previously described method. After streptomycin quantification the particles were diluted to 500 ppm streptomycin and their antimicrobial efficacy was assessed via MIC assay described above. The minimum bactericidal concentration (MBC) of the particles was also assessed by performing colony forming unit (CFU) plating. […]

The test system of series [3] is X. alfalfae. The series can be described thus: MBC by CFU plating after dialysis. The format is cell-based, Xanthomonas alfalfae subsp. citrumelonis. The conditions noted are these: Xanthomonas alfalfae; dialysis time N/A; relative to streptomycin concentration. On the procedure: The antimicrobial efficacy of ZnNP-Strep was also studied after dialysis of the particles. The particles were dialyzed to remove any unbound streptomycin and simulate the effect of rainfall on the particles in field conditions. […] The particles were dialyzed for 0, 1, 3, and 12 h and the remaining streptomycin loaded on the particles for each timepoint was quantified by LCMS by diluting the particles with 1% HCl and analyzing them with the previously described method. After streptomycin quantification the particles were diluted to 500 ppm streptomycin and their antimicrobial efficacy was assessed via MIC assay described above. The minimum bactericidal concentration (MBC) of the particles was also assessed by performing colony forming unit (CFU) plating. After 24 h incubation of bacteria with the samples, 100 μL of the treated bacteria was then transferred to nutrient agar plates. They were then spread dry using sterile spreaders (Fisher Scientific) and incubated for 48 h to check for bacterial growth at each concentration tested.

In series [4] the test system is tomato plants (Solanum lycopersicum). The series is described as follows: Phytotoxicity after foliar application. The series is classed as in vivo. Also noted: key to Phytotoxicity, Tomato sp.: No toxicity (−); symptoms appear on less than 5% of the leaves was rated as minimal (+); 5 to 50% was rated as moderate (++); above 50% was rated as severe (+++). The settings on record: for Phytotoxicity, Tomato sp.: foliar, 72 h. On the procedure:
The phytotoxicity of the ZnNP adjuvant with and without streptomycin was tested on tomato plants (Solanum lycopersicum, model fruit plant, 11 cm tall) obtained from Home Depot. The ZnNP treatments were applied directly on plant leaves (foliar application) using a hand-held sprayer until excess liquid starts dripping. Foliar application was conducted at 8:00 a.m. in a greenhouse setting to simulate field conditions. Treated plants were then placed in a growth chamber, Panasonic environmental test chamber (model MLR-352H) with summer settings (34° C., 60-80% RH). Phytotoxicity was evaluated 72 h post application. Digital photographs of treated leaves were taken for the visual assessment (phenotypic) plant tissue damage. Parallel treatments were done with copper sulfate at 1000 μg/mL (positive control) and DI water (untreated control, UTC) to compare phytotoxicity level with the ZnNP treatments. The appearance of brown necrotic spots, chlorosis, and necrosis on the leaves is indicative of plant tissue damage (i.e. phytotoxicity). Phytotoxicity was rated as follows: No toxicity (−), symptoms appear on less than 5% of the leaves was rated as minimal (+), 5 to 50% was rated as moderate (++), and above 50% was rated as severe (+++). Phytotoxicity studies were carried out in triplicate for each treatment and concentration.

Setting [5] is: 24 h incubation, concentration active.
Where [6] appears, read: highest concentration tested, 1000 μg/mL.

The structures appear in SMILES notation. Structures can show the parent of a compound that is named as a salt.

For the molecule `[H]/N=C(/N)N[C@H]1[C@H](O)[C@@H](O)[C@H](O[C@@H]2O[C@@H](C)[C@](O)(C=O)[C@H]2O[C@@H]2O[C@@H](CO)[C@H](O)[C@@H](O)[C@@H]2NC)[C@@H](N/C(N)=N\[H])[C@@H]1O` [Streptomycin sulfate, streptomycin sulfate], the minimal inhibitory concentration (MIC) against X. alfalfae [1] (Xanthomonas alfalfae, 24 h incubation, concentration active) is 2 µg/mL; in the series with P. syringae (Pseudomonas syringae, 24 h incubation, concentration active), 2 µg/mL; with E. coli (Escherichia coli, 24 h incubation, concentration active), 6 µg/mL; with X. alfalfae [2], 1 µg/mL. Besides, the MBC against X. alfalfae [3] was 16 µg/mL. Besides, in series [4] (1000 μg/mL Strep), the “Phytotoxicity, Tomato sp.” value is “−”.
`CC(=O)N[C@@H](CS)C(=O)O` [NAC, N-acetylcysteine]: in the series with X. alfalfae [1] (setting [5]), the “X. alfalfae (MIC)” value is reported as “No inhibition”. For the same molecule, the growth inhibitory effect result with X. alfalfae [1] (setting [6]), with P. syringae (setting [6]) and in the series with E. coli (setting [6]) was “no growth inhibitory effect” throughout. In the series with P. syringae (setting [5]), the “P. syringae (MIC)” value is “No inhibition”. In addition, in the series on E. coli (setting [5]), the “E. coli (MIC)” value was “No inhibition”.
For `O=S(=O)([O-])[O-].[Cu+2]` [Copper sulfate, copper sulfate], the “Phytotoxicity, Tomato sp.” value in series [4] (1000 μg/mL Cu) is “+++ (above 50% was rated as severe (+++))”. In addition, the “signs of phytotoxicity (visual)” value in series [4] (72 hrs after foliar application) is on record as “many brown spots”.

For orientation: MIC means the lowest concentration found to suppress growth. In general, MBC refers to the lowest tested concentration that kills the bacteria rather than only halting them.

These data come from patent US12070031B2 (priority 2020, dated 2024).
